Several values for one entry are separate records, joined by “and”; a condition that tells them apart may be missing. Equal values may be shown once. Read-outs that look alike come from different tables or passages of the source.

Data set [1] is described as follows: stability under physiological conditions (degradative hydrolysis in phosphate buffer). The data set is classed as physicochemical. The method, then:
The table below provides the […] in 0.1M phosphate buffer (pH 7.4) at 37° C.

Data set [2] has as its system cells from the thymus of normal BALB/c mice (lymphocyte proliferation). The experiment in a line: comitogen-induced thymocyte proliferation procedure (LAF). To be noted: read-out: LAF IC50. The data set is classed as cell-based. The method, then: (§1) Immunosuppressive activity for representative compounds of this invention was evaluated in an in vitro standard pharmacological test procedure to measure lymphocyte proliferation (LAF) and in an in vivo standard pharmacological test procedure which evaluated the survival time of a pinch skin graft.
Briefly, cells from the thymus of normal BALB/c mice are cultured for 72 hours with PHA and IL-1 and pulsed with tritiated thymidine during the last six hours. […] Cells are harvested and incorporated radioactivity is determined. Inhibition of lymphoproliferation is assessed as percent change in counts per minute from nondrug treated controls. For each compound evaluated, rapamycin was also evaluated for the purpose of comparison. An IC50 was obtained for each test compound as well as for rapamycin. […] The results obtained are provided as an IC50.

The subject of data set [3] is pinch skin graft from male BALB/c donors transplanted to male C3 H(H-2K) recipients. Nature of the data set: survival time of pinch skin graft (allograft). The data set is classed as in vivo, male C3 H(H-2K) recipients (mice). Particulars: 4 mg/kg, intraperitoneally or orally; untreated controls rejected within 6-7 days. The method, then: as §1
Representative compounds of this invention were also evaluated in an in vivo test procedure designed to determine the survival time of pinch skin graft from male BALB/c donors transplanted to male C3 H(H-2K) recipients. The method is adapted from Billingham R. E. and Medawar P. B., J. Exp. Biol. 28:385-402, (1951 ). Briefly, a pinch skin graft from the donor was grafted on the dorsum of the recipient as a allograft, and an isograft was used as control in the same region. The recipients were treated with either varying concentrations of test compounds intraperitoneally or orally. Rapamycin was used as a test control. Untreated recipients serve as rejection control. The graft was monitored daily and observations were recorded until the graft became dry and formed a blackened scab. This was considered as the rejection day. The mean graft survival time (number of days±S.D.) of the drug treatment group was compared with the control group. […] Results are expressed as the mean survival time in days. Untreated (control) pinch skin grafts are usually rejected within 6-7 days. […]

Where [4] appears, read: Mus musculus, Lymphocyte, 72 h culture with PHA and IL-1, tritiated thymidine during last six hours.
Where [5] appears, read: 72 h culture with PHA and IL-1, tritiated thymidine during last six hours.

As to `CO/N=C1\C[C@@H]([C@H](C)C[C@@H]2CC[C@@H](O)[C@H](OC)C2)OC(=O)[C@@H]2CCCCN2C(=O)C(=O)[C@]2(O)O[C@@H](CC[C@H]2C)C[C@H](OC)/C(C)=C/C=C/C=C/[C@@H](C)C[C@@H](C)C(=O)[C@H](OC)[C@H](O)/C(C)=C/[C@H]1C` [Rapamycin (E)-27-(O-methoxime), rapamycin (E)-27-(O-methoxime)], in data set [1] (0.1m phosphate buffer, pH 7.4), the half-life was 59 h.
Same read-out and setting: then `CO[C@H]1C[C@@H]2CC[C@@H](C)[C@@](O)(O2)C(=O)C(=O)N2CCCC[C@H]2C(=O)O[C@H]([C@H](C)C[C@@H]2CC[C@@H](OC(=O)CC[C@H](NC(=O)OC(C)(C)C)C(=O)OC(C)(C)C)[C@H](OC)C2)CC(=O)[C@H](C)/C=C(\C)[C@@H](O)[C@@H](OC)C(=O)[C@H](C)C[C@H](C)/C=C/C=C/C=C/1C` [rapamycin 42-ester with (S)-5-tertbutoxy-4-tertbutoxycarbonylamino-5-oxo-pentanoic acid, reference compound], with 24 h.
The molecule `CO/N=C1/C[C@@H]([C@H](C)C[C@@H]2CC[C@@H](OC(=O)CC[C@H](NC(=O)OC(C)(C)C)C(=O)OC(C)(C)C)[C@H](OC)C2)OC(=O)[C@@H]2CCCCN2C(=O)C(=O)[C@]2(O)O[C@@H](CC[C@H]2C)C[C@H](OC)/C(C)=C/C=C/C=C/[C@@H](C)C[C@@H](C)C(=O)[C@H](OC)[C@H](O)/C(C)=C/[C@H]1C` [Example 10, Rapamycin (Z)-27-(O-methoxime), 42-ester with (S)-5-tertbutoxy-4-tertbutoxycarbonylamino-5-oxo-pentanoic acid] showed a half-life in data set [1] (0.1m phosphate buffer, pH 7.4) of 264 h. In addition, the “stability toward degradation compared with rapamycin or the corresponding oxime or ester alone” value in data set [1] (pH 7.4) is “significantly more stable toward degradation than rapamycin, or the corresponding oxime or ester alone”. Moreover, the IC50 in data set [2] (setting [4]) worked out at 4.1 nM. Moreover, the “Skin Graft mean survival time (days ± SD)” value in data set [3] was 10.0 ± 0.2 days and 11.2 ± 0.8 days.
Take `CO/N=C1/C[C@@H]([C@H](C)C[C@@H]2CC[C@@H](OC(=O)COCC(=O)OCc3ccccc3)[C@H](OC)C2)OC(=O)[C@@H]2CCCCN2C(=O)C(=O)[C@]2(O)O[C@@H](CC[C@H]2C)C[C@H](OC)/C(C)=C/C=C/C=C/[C@@H](C)C[C@@H](C)C(=O)[C@H](OC)[C@H](O)/C(C)=C/[C@H]1C` [Example 8, Rapamycin (Z)-27-(O-methoxime), 42-ester with (5-benzyloxycarbonylmethoxy) acetic acid]: in data set [2] (setting [4]), the IC50 turned out to be 421 nM.
Molecule `CO/N=C1/C[C@@H]([C@H](C)C[C@@H]2CC[C@@H](O)[C@H](OC)C2)OC(=O)[C@@H]2CCCCN2C(=O)C(=O)[C@]2(O)O[C@@H](CC[C@H]2C)C[C@H](OC)/C(C)=C/C=C/C=C/[C@@H](C)C[C@@H](C)C(=O)[C@H](OC)[C@H](O)/C(C)=C/[C@H]1C` [Rapamycin (Z)-27-(O-methoxime), rapamycin (Z)-27-(O-methoxime)] gave a half-life in data set [1] (0.1m phosphate buffer, pH 7.4) of 156 h.
With `CO/N=C1\C[C@@H]([C@H](C)C[C@@H]2CC[C@@H](OC(=O)Oc3ccc([N+](=O)[O-])cc3)[C@H](OC)C2)OC(=O)[C@@H]2CCCCN2C(=O)C(=O)[C@]2(O)O[C@@H](CC[C@H]2C)C[C@H](OC)/C(C)=C/C=C/C=C/[C@@H](C)C[C@@H](C)C(=O)[C@H](OC)[C@H](O)/C(C)=C/[C@H]1C` [Example 9, Rapamycin (E)-27-(O-methoxime), 42-ester with (4-nitrophenoxy)carbonic acid], the IC50 in data set [2] (setting [5]) was determined as 47 nM; in data set [2] (setting [4]), 77 nM.
`CO[C@H]1C[C@@H]2CC[C@@H](C)[C@@](O)(O2)C(=O)C(=O)N2CCCC[C@H]2C(=O)O[C@H]([C@H](C)C[C@@H]2CC[C@@H](OC(=O)CC[C@H](NC(=O)OC(C)(C)C)C(=O)OC(C)(C)C)[C@H](OC)C2)C/C(=N/OCC#N)[C@H](C)/C=C(\C)[C@@H](O)[C@@H](OC)C(=O)[C@H](C)C[C@H](C)/C=C/C=C/C=C/1C` [Example 3, Rapamycin (Z)-27-O-(cyanomethyl)-oxime, 42-ester with N-(tert-butoxycarbonyl)-α-O-(tert-butyl)-L-glutamic Acid]: the IC50 in data set [2] (setting [4]) was 432 nM.
Regarding `CO/N=C1/C[C@@H]([C@H](C)C[C@@H]2CC[C@@H](OC(=O)CN(C)C)[C@H](OC)C2)OC(=O)[C@@H]2CCCCN2C(=O)C(=O)[C@]2(O)O[C@@H](CC[C@H]2C)C[C@H](OC)/C(C)=C/C=C/C=C/[C@@H](C)C[C@@H](C)C(=O)[C@H](OC)[C@H](O)/C(C)=C/[C@H]1C` [Example 7, Rapamycin (Z)-27-(O-methoxime), 42-ester with 2-N,N-dimethylglycine], in data set [2] (setting [4]), the IC50 is 291 nM.
Turning to `CO[C@H]1C[C@@H]2CC[C@@H](C)[C@@](O)(O2)C(=O)C(=O)N2CCCC[C@H]2C(=O)O[C@H]([C@H](C)C[C@@H]2CC[C@@H](O)[C@H](OC)C2)CC(=O)[C@H](C)/C=C(\C)[C@@H](O)[C@@H](OC)C(=O)[C@H](C)C[C@H](C)/C=C/C=C/C=C/1C` [Rapamycin], the half-life in data set [1] (0.1M phosphate buffer (pH 7.4) at 37° C., read-out: Half Life (converted)) was 13 h. The IC50 in data set [2] (Mus musculus, Lymphocyte) lay within 0.4 to 5.1 nM. For the same molecule, the “Skin Graft mean survival time (days ± SD)” value in data set [3] turned out to be 12.0 ± 1.7 days.
Regarding `CO/N=C1\C[C@@H]([C@H](C)C[C@@H]2CC[C@@H](OC(=O)CC[C@H](NC(=O)OC(C)(C)C)C(=O)OC(C)(C)C)[C@H](OC)C2)OC(=O)[C@@H]2CCCCN2C(=O)C(=O)[C@]2(O)O[C@@H](CC[C@H]2C)C[C@H](OC)/C(C)=C/C=C/C=C/[C@@H](C)C[C@@H](C)C(=O)[C@H](OC)[C@H](O)/C(C)=C/[C@H]1C` [Example 11, Rapamycin (E)-27-(O-methoxime), 42-ester with (S)-5-tertbutoxy-4-tertbutoxycarbonylamino-5-oxo-pentanoic acid], the IC50 in data set [2] (setting [5]) was 321 nM; in data set [2] (setting [4]), 372 nM.

What is called half-life is the time needed for the level to fall by half in the phase considered. For orientation: IC50 means the concentration needed to halve the response being measured.

The values above are taken from patent publication US5373014A, “Rapamycin oximes” (American Home Products Corporation, priority 1993, dated 1994).
